This assay has as its target T1, NLRP3 (Homo sapiens, UniProt Q96P20).
T1 construct: host or cells: THP-1 cells differentiated with PMA
Put plainly: IL-1β Secretion Assay (NLRP3-dependent IL1β secretion in THP1 cells). Format: cell-based. Particulars: PMA-differentiated THP-1 cells; compounds incubated 20 h; 2.5 μM Nigericin 3 h; HTRF IL-1β readout; read-out: IC50 IL-1β Inhibition. The procedure, abridged: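 THP-1 cells differentiated with 100 ng/mL PMA for 24 h, then given compound (7-point 3-fold series, 1:200 from DMSO) for 20 h in RPMI+5% FBS. NLRP3 activated with 2.5 μM nigericin for 3 h; secreted IL-1β measured by HTRF; IC50 from logistic fit of % inhibition.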
For orientation: Time-resolved FRET reads energy transfer from a long-lived donor to a nearby acceptor.

SMILES strings stand for the structures.

In general, IC50 refers to the point on the concentration scale where inhibition reaches its midpoint.

T1 sequence (Q96P20 whole entry): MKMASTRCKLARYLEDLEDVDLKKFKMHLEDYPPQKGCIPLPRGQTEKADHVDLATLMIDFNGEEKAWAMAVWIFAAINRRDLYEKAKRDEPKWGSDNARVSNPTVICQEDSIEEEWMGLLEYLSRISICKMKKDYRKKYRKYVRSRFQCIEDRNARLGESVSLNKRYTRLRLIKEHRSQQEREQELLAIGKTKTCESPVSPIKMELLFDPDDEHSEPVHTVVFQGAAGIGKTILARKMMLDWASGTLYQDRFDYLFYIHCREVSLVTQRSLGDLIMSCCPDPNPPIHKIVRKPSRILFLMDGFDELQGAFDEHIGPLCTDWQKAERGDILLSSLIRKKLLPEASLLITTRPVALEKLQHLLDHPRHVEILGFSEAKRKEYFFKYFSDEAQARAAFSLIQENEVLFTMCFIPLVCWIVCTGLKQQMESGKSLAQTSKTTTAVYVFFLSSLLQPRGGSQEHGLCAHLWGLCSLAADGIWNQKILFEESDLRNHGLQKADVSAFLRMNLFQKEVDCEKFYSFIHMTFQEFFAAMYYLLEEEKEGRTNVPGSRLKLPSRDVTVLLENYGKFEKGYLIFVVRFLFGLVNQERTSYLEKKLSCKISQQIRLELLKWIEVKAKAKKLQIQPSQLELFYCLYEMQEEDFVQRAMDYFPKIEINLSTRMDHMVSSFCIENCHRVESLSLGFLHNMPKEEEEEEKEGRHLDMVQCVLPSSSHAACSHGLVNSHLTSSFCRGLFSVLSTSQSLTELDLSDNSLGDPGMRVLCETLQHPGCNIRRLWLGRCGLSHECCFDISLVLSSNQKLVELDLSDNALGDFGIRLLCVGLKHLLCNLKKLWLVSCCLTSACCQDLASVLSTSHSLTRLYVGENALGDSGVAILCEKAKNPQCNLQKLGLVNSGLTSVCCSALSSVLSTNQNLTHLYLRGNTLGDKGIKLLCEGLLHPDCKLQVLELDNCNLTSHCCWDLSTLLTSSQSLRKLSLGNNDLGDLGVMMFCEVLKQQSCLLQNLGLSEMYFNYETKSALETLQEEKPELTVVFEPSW

With `OCCN1CCC[C@@H](Nc2nnc(-c3ccc(Cl)cc3OC(F)F)c3cncn23)C1` [Compound 192, 2-[(3R)-3-({1-[4-chloro-2-(difluoromethoxy)phenyl]imidazo[1,5-d][1,2,4]triazin-4-yl}amino)piperidin-1-yl]ethan-1-ol], the IC50 is 10 to 100 nM.
Then `Cc1cc2c(-c3ccc(C(F)(F)F)cc3C(F)(F)F)nnc(N[C@@H]3CCOC[C@H]3O)n2c1` [Compound 164, (3S,4R)-4-({1-[2,4-bis(trifluoromethyl)phenyl]-7-methylpyrrolo[1,2-d][1,2,4]triazin-4-yl}amino)oxan-3-ol], with 100 to 300 nM; and `Cc1cc2c(-c3ccc(Cl)cc3C(F)F)nnc(N[C@@H]3CCCN(C)C3)n2n1` [Compound 362, 4-[4-chloro-2-(difluoromethyl)phenyl]-2-methyl-N-[(3R)-1-methylpiperidin-3-yl]pyrazolo[1,5-d][1,2,4]triazin-7-amine], with 10 to 100 nM.
Under `COc1ccc(-c2nnc(NC[C@@H](C)O)n3cccc23)c(OC(F)(F)F)c1` [Compound 70, (2R)-1-({1-[4-methoxy-2-(trifluoromethoxy)phenyl]pyrrolo[1,2-d][1,2,4]triazin-4-yl}amino)propan-2-ol] stands 1 to 10 nM.
With `O=C1NCCC1Nc1nnc(-c2ccc(C(F)(F)F)cc2OC(F)(F)F)c2cncn12` (stereo not shown) [Compound 256, 3-({1-[2-(trifluoromethoxy)-4-(trifluoromethyl)phenyl]imidazo[1,5-d][1,2,4]triazin-4-yl}amino)pyrrolidin-2-one], the concentration for half-maximal inhibition (IC50) was less than 1 nM.
Under `O[C@H]1CCCC[C@@H]1Nc1nnc(-c2ccc(C(F)(F)F)cc2C(F)(F)F)c2cncn12` [Compound 293, (1S,2S)-2-({1-[2,4-bis(trifluoromethyl)phenyl]imidazo[1,5-d][1,2,4]triazin-4-yl}amino)cyclohexan-1-ol] stands 10 to 100 nM; under `CC(Nc1nnc(-c2ccc(C(F)(F)F)cc2C(F)(F)F)c2ccnn12)c1cccc(O)c1` (stereo not shown) [Compound 395, 3-[1-({4-[2,4-bis(trifluoromethyl)phenyl]pyrazolo[1,5-d][1,2,4]triazin-7-yl}amino)ethyl]phenol], 1 to 10 nM.
Consider `Cc1ccc(-c2nnc(N[C@@H]3CCCN(C)C3)n3cccc23)c(CC(F)(F)F)c1` [Compound 159, N-[(3R)-1-methylpiperidin-3-yl]-1-[4-methyl-2-(2,2,2-trifluoroethyl)phenyl]pyrrolo[1,2-d][1,2,4]triazin-4-amine], for which the IC50 is less than 1 nM.
Then `Cc1ccc(-c2nnc(N[C@@H]3CCCN(CCO)C3)n3cncc23)c(OC(F)F)c1` [Compound 184, 2-[(3R)-3-({1-[2-(difluoromethoxy)-4-methylphenyl]imidazo[1,5-d][1,2,4]triazin-4-yl}amino)piperidin-1-yl]ethan-1-ol], with 1 to 10 nM.
Under `CN1CCC[C@@H](Nc2nnc(-c3ccc(C4CC4)cc3OC(F)F)c3cncn23)C1` [Compound 203, 1-[4-cyclopropyl-2-(difluoromethoxy)phenyl]-N-[(3R)-1-methylpiperidin-3-yl]imidazo[1,5-d][1,2,4]triazin-4-amine] stands less than 1 nM; under `O=C1NCCC1Nc1nnc(-c2ccc(C(F)(F)F)cc2OC(F)(F)F)c2ccnn12` (stereo not shown) [Compound 393, 3-({4-[2-(trifluoromethoxy)-4-(trifluoromethyl)phenyl]pyrazolo[1,5-d][1,2,4]triazin-7-yl}amino)pyrrolidin-2-one], 10 to 100 nM; under `Cc1ccc(-c2nnc(N[C@@H]3CCCN(CCO)C3)n3cccc23)c(OC(F)F)c1` [Compound 45, 2-[(3R)-3-({1-[2-(difluoromethoxy)-4-methylphenyl]pyrrolo[1,2-d][1,2,4]triazin-4-yl}amino)piperidin-1-yl]ethan-1-ol], 10 to 100 nM.
In the case of `COc1ccc(-c2nnc(NCCO)n3cccc23)c(OC(F)(F)F)c1` [Compound 64, 2-({1-[4-methoxy-2-(trifluoromethoxy)phenyl]pyrrolo[1,2-d][1,2,4]triazin-4-yl}amino)ethan-1-ol], the IC50 is 10 to 100 nM.
As for `Cc1ccc(-c2nnc(N[C@H]3C[C@@](C)(O)C3)n3nc(C)cc23)c(CC(F)(F)F)c1` [Compound 390, (1s,3s)-1-methyl-3-({2-methyl-4-[4-methyl-2-(2,2,2-trifluoroethyl)phenyl]pyrazolo[1,5-d][1,2,4]triazin-7-yl}amino)cyclobutan-1-ol], the IC50 was 1 to 10 nM.
Under `COc1ccc(-c2nnc(NC3CCNC3=O)n3cncc23)c(C(F)(F)F)c1` (stereo not shown) [Compound 235, 3-({1-[4-methoxy-2-(trifluoromethyl)phenyl]imidazo[1,5-d][1,2,4]triazin-4-yl}amino)pyrrolidin-2-one] stands 1 to 10 nM; under `O[C@@H]1CCCC[C@@H](Nc2nnc(-c3ccc(C(F)(F)F)cc3CC(F)(F)F)c3cccn23)C1` (racemic) [Compound 129, (1R,3R)-3-({1-[2-(2,2,2-trifluoroethyl)-4-(trifluoromethyl)phenyl]pyrrolo[1,2-d][1,2,4]triazin-4-yl}amino)cycloheptan-1-ol AND (1S,3S)-3-({1-[2-(2,2,2-trifluoroethyl)-4-(trifluoromethyl)phenyl]pyrrolo[1,2-d][1,2,4]triazin-4-yl}amino)cycloheptan-1-ol], 1 to 10 nM.
Then `CCN1CCC[C@@H](Nc2nnc(-c3ccc(C(F)(F)F)cc3OC(F)(F)F)c3cncn23)C1` [Compound 229, N-[(3R)-1-ethylpiperidin-3-yl]-1-[2-(trifluoromethoxy)-4-(trifluoromethyl)phenyl]imidazo[1,5-d][1,2,4]triazin-4-amine], with less than 1 nM; and `COc1ccc(-c2nnc(N[C@@H]3CCOC[C@H]3O)n3cccc23)c(OC(F)F)c1` [Compound 167, (3S,4R)-4-({1-[2-(difluoromethoxy)-4-methoxyphenyl]pyrrolo[1,2-d][1,2,4]triazin-4-yl}amino)oxan-3-ol], with 10 to 100 nM.
Under `COc1ccc(-c2nnc(N[C@@H]3CCCN(CCO)C3)n3cccc23)c(OC2CC2)c1` [Compound 143, 2-[(3R)-3-({1-[2-(cyclopropyloxy)-4-methoxyphenyl]pyrrolo[1,2-d][1,2,4]triazin-4-yl}amino)piperidin-1-yl]ethan-1-ol] stands 10 to 100 nM.
In the case of `CN1CCC[C@@H](Nc2nnc(-c3ccc(C(F)(F)F)cc3OC(F)(F)F)c3cncn23)C1` [Compound 197, N-[(3R)-1-methylpiperidin-3-yl]-1-[2-(trifluoromethoxy)-4-(trifluoromethyl)phenyl]imidazo[1,5-d][1,2,4]triazin-4-amine], the IC50 is less than 1 nM.
Then `CCN1CCC[C@@H](Nc2nnc(-c3ccc(C(F)(F)F)cc3OC(F)(F)F)c3cc(C)nn23)C1` [Compound 365, N-[(3R)-1-ethylpiperidin-3-yl]-2-methyl-4-[2-(trifluoromethoxy)-4-(trifluoromethyl)phenyl]pyrazolo[1,5-d][1,2,4]triazin-7-amine], with 1 to 10 nM.
Take `Cc1ccc(-c2nnc(N[C@@H]3CCCC[C@H]3O)n3cccc23)c(CC(F)(F)F)c1` [Compound 156, (1R,2R)-2-({1-[4-methyl-2-(2,2,2-trifluoroethyl)phenyl]pyrrolo[1,2-d][1,2,4]triazin-4-yl}amino)cyclohexan-1-ol]: the IC50 lay in the range of 1 to 10 nM.
`COc1ccc(-c2nnc(N[C@@H]3CCCC[C@H]3O)n3nc(C)cc23)c(OC(F)(F)F)c1` [Compound 392, (1R,2R)-2-({4-[4-methoxy-2-(trifluoromethoxy)phenyl]-2-methylpyrazolo[1,5-d][1,2,4]triazin-7-yl}amino)cyclohexan-1-ol]: the concentration for half-maximal inhibition (IC50) is 10 to 100 nM.
Turning to `COc1ccc(-c2nnc(N[C@@H]3CCOC[C@H]3O)n3cncc23)c(CC(F)(F)F)c1` [Compound 249, (3S,4R)-4-({1-[4-methoxy-2-(2,2,2-trifluoroethyl)phenyl]imidazo[1,5-d][1,2,4]triazin-4-yl}amino)oxan-3-ol], the 50% inhibitory concentration (IC50) was 1 to 10 nM.
Turning to `COc1ccc(-c2nnc(N[C@H]3C[C@@](C)(O)C3)n3cncc23)c(C2CC2)c1` [Compound 319, (1s,3s)-3-{[1-(2-cyclopropyl-4-methoxyphenyl)imidazo[1,5-d][1,2,4]triazin-4-yl]amino}-1-methylcyclobutan-1-ol], the IC50 was 10 to 100 nM.
Then `CCN1CCC[C@@H](Nc2nnc(-c3ccc(OC)cc3OC(F)F)c3cccn23)C1` [Compound 166, 1-[2-(difluoromethoxy)-4-methoxyphenyl]-N-[(3R)-1-ethylpiperidin-3-yl]pyrrolo[1,2-d][1,2,4]triazin-4-amine], with less than 1 nM; and `Cc1ccc(-c2nnc(N[C@@H]3CCCN(C)C3)n3cccc23)c(OC(F)F)c1` [Compound 33, 1-[2-(difluoromethoxy)-4-methylphenyl]-N-[(3R)-1-methylpiperidin-3-yl]pyrrolo[1,2-d][1,2,4]triazin-4-amine], with 1 to 10 nM; and `O[C@H]1CCC[C@@H](Nc2nnc(-c3ccc(C(F)(F)F)cc3OC(F)(F)F)c3cccn23)C1` [Compound 122, (1S,3R)-3-({1-[2-(trifluoromethoxy)-4-(trifluoromethyl)phenyl]pyrrolo[1,2-d][1,2,4]triazin-4-yl}amino)cyclohexan-1-ol], with 1 to 10 nM.
`COc1ccc(-c2nnc(N[C@@H]3CCCN(C)C3)n3cccc23)c(C2CC2)c1` [Compound 27, 1-(2-cyclopropyl-4-methoxyphenyl)-N-[(3R)-1-methylpiperidin-3-yl]pyrrolo[1,2-d][1,2,4]triazin-4-amine]: the IC50 was in the range of 1 to 10 nM.
As for `COCC1CC(Nc2nnc(-c3ccc(C(F)(F)F)cc3OC(F)(F)F)c3cncn23)C1` (stereo not shown) [Compound 324, N-[3-(methoxymethyl)cyclobutyl]-1-[2-(trifluoromethoxy)-4-(trifluoromethyl)phenyl]imidazo[1,5-d][1,2,4]triazin-4-amine], the IC50 was 10 to 100 nM.
Under `FC(F)Oc1ccc(-c2nnc(Nc3cc[nH]n3)n3cncc23)c(OC(F)(F)F)c1` [Compound 296, 1-[4-(difluoromethoxy)-2-(trifluoromethoxy)phenyl]-N-(1H-pyrazol-3-yl)imidazo[1,5-d][1,2,4]triazin-4-amine] stands 10 to 100 nM.

(Values after patent publication US20250179078A1, “INHIBITORS OF NLRP3” (PTC THERAPEUTICS, INC., priority 2022, published 2025).)
